Test systems include A549; ACHN; BT-549; EKVX; HCC 2998; HCT-116; HOP-62; HT-29; K562; MCF7; OVCAR-8; SF-295; SF-539; SK-MEL-2; SK-MEL-5; SK-OV-3; SN12C; SNB-75; UACC-62.
What all share (assay): NCI tumour cell line growth inhibition, 48 h

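The compound was tested at five concentrations on cells cultured in 96-well plates, with a 48-hour exposure period. GI50 is the concentration that inhibits growth by half.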 Active and inactive are the calls of the source. Rule as the data show it: active = GI50 up to about 1.1 µM and inactive = higher.

On to `COC(OC)C1OC(CO)C(n2cc(C)c(=O)[nH]c2=O)C1O` (stereo unspecified), for which the GI50 with A549, in the experiment with ACHN, in the experiment with BT-549, in the experiment on EKVX, with HCC 2998 and in the experiment with HCT-116 was > 100 µM (inactive) throughout. Further, the GI50 in the experiment on HOP-62, in the experiment on HT-29, in the experiment on K562, in the experiment with MCF7, in the experiment with OVCAR-8 and in the experiment on SF-295 was > 100 µM (inactive) in each case. The GI50 in the experiment with SF-539, with SK-MEL-2, in the experiment on SK-MEL-5, in the experiment on SK-OV-3, in the experiment with SN12C and with SNB-75 was > 100 µM (inactive) each time. Also, the GI50 in the experiment with UACC-62 was > 100 µM (inactive).

`CC(C)C(C/C=C1/CC(CO)(COC(=O)c2ccccc2)OC1=O)C(C)C` (stereo unspecified): the GI50 was 12.4 µM (inactive) in the experiment with A549; 13.9 µM (inactive) in the experiment with ACHN; 18.3 µM (inactive) in the experiment with BT-549; 19.2 µM (inactive) in the experiment with EKVX; 18.8 µM (inactive) with HCC 2998; 16 µM (inactive) in the experiment with HCT-116. The GI50 with HOP-62 is 9.93 µM (inactive); in the experiment on HT-29, 18.7 µM (inactive); in the experiment with K562, 9.04 µM (inactive); in the experiment on MCF7 it was 19.6 µM (inactive); in the experiment on OVCAR-8 it was 22.4 µM (inactive); in the experiment on SF-295, 12.2 µM (inactive). The GI50 with SF-539 was 4.69 µM (inactive); with SK-MEL-2 it was > 100 µM (inactive); in the experiment with SK-MEL-5, 8.45 µM (inactive); in the experiment on SK-OV-3 it was 45.4 µM (inactive); with SN12C, 15.5 µM (inactive); with SNB-75 it was 7.5 µM (inactive). For the same compound, the GI50 in the experiment on UACC-62 was 23.9 µM (inactive).

On to `CC12c3c4cccc3Oc3cc(N)cc(c31)Oc1cc(N)cc(c12)O4`, for which the GI50 is 3.77 µM (inactive) with A549; 11.1 µM (inactive) in the experiment on ACHN; 3.84 µM (inactive) in the experiment with BT-549; 3.38 µM (inactive) with EKVX; 4.61 µM (inactive) in the experiment on HCC 2998; 3.14 µM (inactive) with HCT-116. Also, the GI50 with HOP-62 is 5.75 µM (inactive); in the experiment with HT-29 it was 2.01 µM (inactive); with K562, 4.18 µM (inactive); in the experiment with MCF7, 4.37 µM (inactive); in the experiment on OVCAR-8, 0.524 µM (active); in the experiment on SF-295, 2.53 µM (inactive). Further, the GI50 in the experiment with SF-539 was 2.96 µM (inactive); with SK-MEL-2 it was 9.86 µM (inactive); in the experiment on SK-MEL-5, 3.3 µM (inactive); with SK-OV-3, 4.11 µM (inactive); with SN12C, 8.28 µM (inactive); in the experiment on SNB-75, 3.77 µM (inactive). For the same compound, the GI50 in the experiment on UACC-62 was 4.59 µM (inactive).

With `Cc1cccc2c(O)c3c(O)cc(O)cc3nc12`, the GI50 in the experiment with A549 is > 10 µM (inactive); in the experiment with ACHN, > 10 µM (inactive); in the experiment on BT-549, 3.61 µM (inactive); in the experiment with EKVX it was > 10 µM (inactive); in the experiment with HCC 2998, > 10 µM (inactive); in the experiment with HCT-116 it was > 10 µM (inactive). The GI50 in the experiment on HOP-62, in the experiment on HT-29, in the experiment on K562, with MCF7, in the experiment with OVCAR-8 and in the experiment with SF-295 was > 10 µM (inactive) each time. The GI50 with SF-539 is 6.12 µM (inactive); in the experiment on SK-MEL-2, > 10 µM (inactive); in the experiment on SK-MEL-5, 9.71 µM (inactive); in the experiment on SK-OV-3, > 10 µM (inactive); with SN12C it was > 10 µM (inactive); with SNB-75 it was 7.24 µM (inactive). For the same compound, in the experiment on UACC-62, the GI50 was > 10 µM (inactive).
